Results published in patent publication US12459899B2, “Isoquinolinone derivatives, method for preparing the same, and pharmaceutical composition for preventing or treating poly(ADP-ribose) polymerase-1-related diseases, comprising the same as active ingredient” (DIGMBIO. INC., priority 2019, dated 2025).

Target: PARP-1 (poly[ADP-ribose] polymerase 1) enzyme (Homo sapiens (Human), UniProt P09874)
Assay: PARP-1 (poly[ADP-ribose] polymerase 1) enzyme inhibitory ability, Trevigen assay kit
Type: biochemical
Conditions: for inhibition at 0.001 µM: 1 nM compound, read-out: PAR P-1 Inhibitory ability at 1 nM; for IC50: PARP-1 enzyme activity
Description: In order to evaluate the PARP-1 (poly[ADP-ribose] polymerase 1) enzyme inhibitory ability of the compounds according to the present invention, an experiment was conducted as follows.
Specifically, in order to evaluate the PARP-1 (poly[ADP-ribose] polymerase 1) enzyme inhibitory ability of the compounds of Examples 1 to 276 according to the present invention, the PARP-1 (poly[ADP-ribose] polymerase 1) activity was investigated in the following manner using an assay kit purchased from Trevigen, Inc. (Catalog number: 4677-096-K). 50 μL of 1×PARP buffer (provided by Trevigen's kit) was dispensed into a 96-well plate coated with histones per each well, and then rehydrated for 30 minutes. After removing the 1×PARP buffer present in the well, PARP-1 (poly[ADP-ribose] polymerase 1) enzyme (0.5 unit/well) and 1 μM concentration or various concentrations of the compounds of Example 1 to 276 were added at room temperature and reacted for 10 minutes. Thereafter, each well was treated with 25 μL of 1×PARP cocktail (biotinylated NAD, activated DNA, provided by Trevigen's kit), and then reacted at room temperature for 1 hour. After the reaction was completed, each well was washed twice with PBS (7.5 mM Na2HPO4, 2.5 mM NaH2PO4, 145 mM NaCl) containing 0.1% triton X-100, and washed twice with PBS. Then, 50 μL of strep-HRP (streptavidin-linked peroxidase) was added and reacted at room temperature for 1 hour, and then washed twice with PBS containing 0.1% triton X-100, and washed twice with PBS. After removing all PBS, 50 μL of TACS-sapphire, a substrate, was added, and reacted at room temperature for 15 minutes while blocking the light. After the reaction was terminated by treatment with 50 μL of 5% phosphoric acid to each well, the absorbance was measured at 450 nm using a microplate reader Victor3 from PerkinElmer, Inc. to quantify the value.

PARP-1 (poly[ADP-ribose] polymerase 1) enzyme, sequence (P09874 whole entry): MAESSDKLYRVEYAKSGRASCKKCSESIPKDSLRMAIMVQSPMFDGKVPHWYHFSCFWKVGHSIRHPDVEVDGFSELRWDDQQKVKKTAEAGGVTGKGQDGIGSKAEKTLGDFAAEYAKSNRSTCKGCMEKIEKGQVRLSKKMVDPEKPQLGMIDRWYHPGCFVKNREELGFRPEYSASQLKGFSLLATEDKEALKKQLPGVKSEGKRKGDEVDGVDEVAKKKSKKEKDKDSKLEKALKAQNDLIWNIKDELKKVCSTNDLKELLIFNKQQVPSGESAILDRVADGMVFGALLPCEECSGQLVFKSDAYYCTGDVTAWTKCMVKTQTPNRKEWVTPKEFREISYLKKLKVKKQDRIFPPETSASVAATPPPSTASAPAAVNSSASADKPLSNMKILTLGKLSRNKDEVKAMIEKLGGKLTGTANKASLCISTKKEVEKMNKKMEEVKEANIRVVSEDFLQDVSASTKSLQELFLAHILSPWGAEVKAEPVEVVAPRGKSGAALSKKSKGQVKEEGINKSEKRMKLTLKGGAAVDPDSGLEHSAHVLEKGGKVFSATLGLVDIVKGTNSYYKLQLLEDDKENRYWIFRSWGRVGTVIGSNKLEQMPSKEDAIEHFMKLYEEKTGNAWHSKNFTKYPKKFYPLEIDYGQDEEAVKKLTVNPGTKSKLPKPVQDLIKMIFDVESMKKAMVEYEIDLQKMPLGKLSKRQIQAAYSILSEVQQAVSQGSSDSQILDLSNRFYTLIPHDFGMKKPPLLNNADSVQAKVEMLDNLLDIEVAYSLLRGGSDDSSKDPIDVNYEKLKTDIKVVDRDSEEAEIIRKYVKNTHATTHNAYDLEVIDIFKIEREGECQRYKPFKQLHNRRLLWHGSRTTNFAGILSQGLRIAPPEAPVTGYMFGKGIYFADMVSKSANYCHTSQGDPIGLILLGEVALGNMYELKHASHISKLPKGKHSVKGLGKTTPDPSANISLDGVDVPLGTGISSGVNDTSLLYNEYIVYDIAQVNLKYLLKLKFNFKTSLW

| SMILES | inhibition at 0.001 µM | IC50 |
| --- | --- | --- |
| Cc1ccc(F)c2c(=O)[nH]c(CCCN3CCN(C(=O)c4cccc(F)c4)CC3)cc12 [Example 65, 8-fluoro-3-(3-(4-(3-fluorobenzoyl)piperazin-1-yl)propyl)-5-methylisoquinolin-1(2H)-one] | < 50% |  |
| Cc1ccc(F)c2c(=O)[nH]c(CCCN3CCN(C(=O)c4ccccc4)CC3)cc12 [Example 66, 3-(3-(4-benzoylpiperazin-1-yl)propyl)-8-fluoro-5-methylisoquinolin-1(2H)-one] | < 50% |  |
| Cc1ccc(F)c2c(=O)[nH]c(CCCN3CCN(C(=O)c4ccc(F)cc4)CC3)cc12 [Example 67, 8-fluoro-3-(3-(4-(4-fluorobenzoyl)piperazin-1-yl)propyl)-5-methylisoquinolin-1(2H)-one] | < 50% |  |
| N#Cc1ccc(N2CCN(C(=O)CCc3cc4cccc(F)c4c(=O)[nH]3)CC2)cc1 [Example 68, 4-(4-(3-(8-fluoro-1-oxo-1,2-dihydroisoquinolin-3-yl)propanoyl)piperazin-1-yl)benzonitrile] | < 50% | 1.9 nM |
| N#Cc1ccc(N2CCN(C(=O)CCc3cc4cccc(F)c4c(=O)[nH]3)CC2)nc1 [Example 71, 6-(4-(3-(8-fluoro-1-oxo-1,2-dihydroisoquinolin-3-yl)propanoyl)piperazin-1-yl)nicotinonitrile] | < 50% |  |
| N#Cc1ccc(N2CCN(C(=O)CCc3cc4cccc(F)c4c(=O)[nH]3)CC2)cc1F [Example 72, 2-fluoro-4-(4-(3-(8-fluoro-1-oxo-1,2-dihydroisoquinolin-3-yl)propanoyl)piperazin-1-yl)benzonitrile] | < 50% |  |
| N#Cc1ccc(N2CCN(C(=O)CCc3cc4cccc(F)c4c(=O)[nH]3)CC2)c(F)c1 [Example 73, 3-fluoro-4-(4-(3-(8-fluoro-1-oxo-1,2-dihydroisoquinolin-3-yl)propanoyl)piperazin-1-yl)benzonitrile] | < 50% |  |
| N#Cc1ccccc1N1CCN(C(=O)CCc2cc3cccc(F)c3c(=O)[nH]2)CC1 [Example 74, 2-(4-(3-(8-fluoro-1-oxo-1,2-dihydroisoquinolin-3-yl)propanoyl)piperazin-1-yl)benzonitrile] | < 50% |  |
| O=C(CCc1cc2cccc(F)c2c(=O)[nH]1)N1CCN(c2ccccc2F)CC1 [Example 75, 8-fluoro-3-(3-(4-(2-fluorophenyl)piperazin-1-yl)-3-oxopropyl)isoquinolin-1(2H)-one] | < 50% |  |
| N#Cc1cc(F)ccc1N1CCN(C(=O)CCc2cc3cccc(F)c3c(=O)[nH]2)CC1 [Example 76, 5-fluoro-2-(4-(3-(8-fluoro-1-oxo-1,2-dihydroisoquinolin-3-yl)propanoyl)piperazin-1-yl)benzonitrile] | < 50% |  |
| N#Cc1cccc(N2CCN(C(=O)CCc3cc4cccc(F)c4c(=O)[nH]3)CC2)c1 [Example 77, 3-(4-(3-(8-fluoro-1-oxo-1,2-dihydroisoquinolin-3-yl)propanoyl)piperazin-1-yl)benzonitrile] | < 50% |  |
| O=C(CCc1cc2cccc(F)c2c(=O)[nH]1)N1CCN(c2ccc(F)cc2F)CC1 [Example 78, 3-(3-(4-(2,4-difluorophenyl)piperazin-1-yl)-3-oxopropyl)-8-fluoroisoquinolin-1(2H)-one] | < 50% |  |
| N#Cc1ccc(F)c(N2CCN(C(=O)CCc3cc4cccc(F)c4c(=O)[nH]3)CC2)c1 [Example 79, 4-fluoro-3-(4-(3-(8-fluoro-1-oxo-1,2-dihydroisoquinolin-3-yl)propanoyl)piperazin-1-yl)benzonitrile] | < 50% |  |
| N#Cc1cc(N2CCN(C(=O)CCc3cc4cccc(F)c4c(=O)[nH]3)CC2)ccc1F [Example 80, 2-fluoro-5-(4-(3-(8-fluoro-1-oxo-1,2-dihydroisoquinolin-3-yl)propanoyl)piperazin-1-yl)benzonitrile] | < 50% |  |
| N#Cc1ccc(F)cc1N1CCN(C(=O)CCc2cc3cccc(F)c3c(=O)[nH]2)CC1 [Example 81, 4-fluoro-2-(4-(3-(8-fluoro-1-oxo-1,2-dihydroisoquinolin-3-yl)propanoyl)piperazin-1-yl)benzonitrile] | < 50% |  |
| O=C(CCc1cc2cccc(F)c2c(=O)[nH]1)N1CCN(c2cccc(F)c2)CC1 [Example 89, 8-fluoro-3-(3-(4-(3-fluorophenyl)piperazin-1-yl)-3-oxopropyl)isoquinolin-1(2H)-one] | < 50% |  |
| N#Cc1ccc(N2CCN(C(=O)CCc3cc4ccc(F)cc4c(=O)[nH]3)CC2)cc1 [Example 94, 4-(4-(3-(7-fluoro-1-oxo-1,2-dihydroisoquinolin-3-yl)propanoyl)piperazin-1-yl)benzonitrile] | < 50% |  |
| N#Cc1ccc(N2CCN(C(=O)CCc3cc4ccc(F)cc4c(=O)[nH]3)CC2)cn1 [Example 97, 5-(4-(3-(7-fluoro-1-oxo-1,2-dihydroisoquinolin-3-yl)propanoyl)piperazin-1-yl)picolinonitrile] | < 50% |  |
| N#Cc1ccccc1N1CCN(C(=O)CCc2cc3ccc(F)cc3c(=O)[nH]2)CC1 [Example 98, 2-(4-(3-(7-fluoro-1-oxo-1,2-dihydroisoquinolin-3-yl)propanoyl)piperazin-1-yl)benzonitrile] | < 50% |  |
| N#Cc1ccc(N2CCN(C(=O)CCc3cc4ccc(F)cc4c(=O)[nH]3)CC2)nc1 [Example 99, 6-(4-(3-(7-fluoro-1-oxo-1,2-dihydroisoquinolin-3-yl)propanoyl)piperazin-1-yl)nicotinonitrile] | < 50% | 1.05 nM |

Now from value to compound:

| inhibition at 0.001 µM | IC50 | SMILES |
| --- | --- | --- |
| < 50% |  | N#Cc1ccc(C2=CCN(C(=O)CCc3cc4cccc(F)c4c(=O)[nH]3)CC2)cc1 [Example 69, 4-(1-(3-(8-fluoro-1-oxo-1,2-dihydroisoquinolin-3-yl)propanoyl)-1,2,3,6-tetrahydropyridin-4-yl)benzonitrile] |
| < 50% |  | N#Cc1ccc(N2CCN(C(=O)CCc3cc4cccc(F)c4c(=O)[nH]3)CC2)cn1 [Example 70, 5-(4-(3-(8-fluoro-1-oxo-1,2-dihydroisoquinolin-3-yl)propanoyl)piperazin-1-yl)picolinonitrile] |
| < 50% |  | O=C(CCc1cc2cccc(F)c2c(=O)[nH]1)N1CC=C(c2ccccc2F)CC1 [Example 82, 8-fluoro-3-(3-(4-(2-fluorophenyl)-3,6-dihydropyridin-1(2H)-yl)-3-oxopropyl)isoquinolin-1(2H)-one] |
| < 50% |  | O=C(CCc1cc2cccc(F)c2c(=O)[nH]1)N1CC=C(c2cccc(F)c2)CC1 [Example 83, 8-fluoro-3-(3-(4-(3-fluorophenyl)-3,6-dihydropyridin-1(2H)-yl)-3-oxopropyl)isoquinolin-1(2H)-one] |
| < 50% |  | N#Cc1cc(F)cc(C2=CCN(C(=O)CCc3cc4cccc(F)c4c(=O)[nH]3)CC2)c1 [Example 84, 3-fluoro-5-(1-(3-(8-fluoro-1-oxo-1,2-dihydroisoquinolin-3-yl)propanoyl)-1,2,3,6-tetrahydropyridin-4-yl)benzonitrile] |
| < 50% |  | O=C(CCc1cc2cccc(F)c2c(=O)[nH]1)N1CC=C(c2ccc(F)nc2)CC1 [Example 85, 8-fluoro-3-(3-(6-fluoro-3′,6′-dihydro-[3,4′-bipyridine]-1′(2′H)-yl)-3-oxopropyl)isoquinolin-1(2H)-one] |
| < 50% |  | O=C(CCc1cc2cccc(F)c2c(=O)[nH]1)N1CC=C(c2ccc(F)cn2)CC1 [Example 86] |
| < 50% |  | N#Cc1cc(C2=CCN(C(=O)CCc3cc4cccc(F)c4c(=O)[nH]3)CC2)ccc1F [Example 87, 2-fluoro-5-(1-(3-(8-fluoro-1-oxo-1,2-dihydroisoquinolin-3-yl)propanoyl)-1,2,3,6-tetrahydropyridin-4-yl)benzonitrile] |
| < 50% |  | O=C(CCc1cc2cccc(F)c2c(=O)[nH]1)N1CC=C(c2ccnc(F)c2)CC1 [Example 92, 8-fluoro-3-(3-(2′-fluoro-3,6-dihydro-[4,4′-bipyridine]-1(2H)-yl)-3-oxopropyl)isoquinolin-1(2H)-one] |
| < 50% |  | N#Cc1ccc(C2=CCN(C(=O)CCc3cc4cccc(F)c4c(=O)[nH]3)CC2)cn1 [Example 93, 1′-(3-(8-fluoro-1-oxo-1,2-dihydroisoquinolin-3-yl)propanoyl)-1′,2′,3′,6′-tetrahydro-[3,4′-bipyridine]-6-carbonitrile] |
| < 50% |  | N#Cc1ccc(C2=CCN(C(=O)CCc3cc4ccc(F)cc4c(=O)[nH]3)CC2)cc1 [Example 95, 4-(1-(3-(7-fluoro-1-oxo-1,2-dihydroisoquinolin-3-yl)propanoyl)-1,2,3,6-tetrahydropyridin-4-yl)benzonitrile] |
| < 50% |  | N#Cc1ccc(C2=CCN(C(=O)CCc3cc4ccc(F)cc4c(=O)[nH]3)CC2)nc1 [Example 96, 1′-(3-(7-fluoro-1-oxo-1,2-dihydroisoquinolin-3-yl)propanoyl)-1′,2′,3′,6′-tetrahydro-[2,4′-bipyridine]-5-carbonitrile] |
